Measurements taken from patent US9066936B2, “Solid pharmaceutical composition comprising a benzimidazole-7-carboxylate derivative and a pH control agent” (Takeda Pharmaceutical Company Limited, priority 2007, dated 2015).

Columns and labels:
[1] = Solubility of compound A in aqueous solutions with different pHs; assay type: physicochemical; conditions: thermodynamic from solid, 25° C.
Description: An excess amount of compound A and an aqueous solution were placed in a test tube, and the mixture was shaken at 25° C. for 30 sec every 5 min. After 30 min, the solution was filtered with a 0.45 μm membrane filter to give a sample. Using the sample, the concentration of compound A was measured under the following HPLC conditions.
detector: ultraviolet absorption photometer,
measurement wavelength: 260 nm
column: YMC-Pack ProC18, 3 μm, inner diameter: 6 mm,
column temperature: 25° C. • mobile phase: 0.05 mol/L phosphate buffer (pH 3.0)/acetonitrile mixed solution (1:1)

[2] = pH of pH control agent dissolved or suspended in water; assay type: physicochemical; conditions: 1% w/v in water at 25° C.
Description: Here, the pH of the pH control agent is measured under the following conditions. To be precise, it is a pH of a solution or suspension obtained by dissolving or suspending a pH control agent in water at a concentration of 1% w/v at 25° C.
A pH control agent was dissolved or suspended in water at a concentration of 1% w/v at 25° C., and the resulting solution or suspension was measured for pH.

Row | solubility at 30 min ([1]; aqueous buffer, pH 2.0 Britton Robinson buffer) [mg/mL] | solubility at 30 min ([1]; aqueous buffer, pH 3.0 Britton Robinson buffer) [mg/mL] | solubility at 30 min ([1]; aqueous buffer, pH 4.0 Britton Robinson buffer) [mg/mL] | solubility at 30 min ([1]; aqueous buffer, pH 5.0 Britton Robinson buffer) [mg/mL] | solubility at 30 min ([1]; aqueous buffer, pH 6.0 Britton Robinson buffer) [mg/mL] | solubility at 30 min ([1]; aqueous buffer, pH 7.0 Britton Robinson buffer) [mg/mL] | solubility at 30 min ([1]; simulated gastric fluid, 0.1 mol/L HCl) [mg/mL] | SMILES | pH (25° C.) [2]
1 | < 0.01 | < 0.01 | < 0.01 | < 0.01 | < 0.01 | 0.94 | < 0.01 | CCOc1nc2cccc(C(=O)OCc3oc(=O)oc3C)c2n1Cc1ccc(-c2ccccc2-c2noc(=O)[nH]2)cc1.[K] [compound A, (5-methyl-2-oxo-1,3-dioxol-4-yl)methyl 2-ethoxy-1-{[2′-(5-oxo-4,5-dihydro-1,2,4-oxadiazol-3-yl)biphenyl-4-yl]methyl}-1H-benzimidazole-7-carboxylate potassium salt] | 
2 |  |  |  |  |  |  |  | O=C([O-])/C=C/C(=O)O.[Na+] [monosodium fumarate] | 3.57
3 |  |  |  |  |  |  |  | O=P([O-])(O)O.[Na+] [sodium dihydrogen phosphate] | 4.56
